Reference: ChEMBL document CHEMBL4406833 (Eur J Med Chem, 2019)
In brackets after ≈: the same amount, converted by molar mass.

Key:
[1] = biological target: Indoleamine 2,3-dioxygenase 1 (Homo sapiens, UniProt P14902); test: Inhibition of IDO1 in human HeLa cells using L-tryptophan as substrate incubated for 48 hrs; assay type: cell-based
[2] = biological target: T1, Indoleamine 2,3-dioxygenase 2 (Homo sapiens, UniProt Q6ZQW0); test: Inhibition of N-terminal His-tagged human IDO2 expressed in Escherichia coli expression system
T1 sequence (Q6ZQW0 whole entry): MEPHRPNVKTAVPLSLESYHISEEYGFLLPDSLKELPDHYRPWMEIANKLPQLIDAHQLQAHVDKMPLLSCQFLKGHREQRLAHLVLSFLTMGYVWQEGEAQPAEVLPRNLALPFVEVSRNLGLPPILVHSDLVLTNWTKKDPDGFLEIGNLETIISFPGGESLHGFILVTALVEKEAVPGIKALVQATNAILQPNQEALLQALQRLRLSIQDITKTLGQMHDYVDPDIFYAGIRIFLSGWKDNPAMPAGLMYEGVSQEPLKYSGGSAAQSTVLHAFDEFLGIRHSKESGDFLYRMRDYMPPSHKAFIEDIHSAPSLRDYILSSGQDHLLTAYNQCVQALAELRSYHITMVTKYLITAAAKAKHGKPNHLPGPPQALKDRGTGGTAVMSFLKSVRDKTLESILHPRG

[3] = biological target: Tryptophan 2,3-dioxygenase (Homo sapiens, UniProt P48775); test: Inhibition of N-terminal His-tagged human TDO expressed in Escherichia coli expression system
[4] = Apparent permeability across apical to basolateral side in human Caco2 cells upto 90 mins by LC-MS/MS analysis; assay type: ADME, cell-based; settings: Caco-2
[5] = Aqueous solubility of compound at 1 mg after 30 hrs by HPLC analysis; assay type: physicochemical
[6] = Toxicity in C57BL6 mouse allografted with Lewis cells assessed as increase in body weight at 60 mg/kg, ig measured every 3 days for 30 days; assay type: organism-based; settings: in vivo, po, 720 h
[7] = tested on: Lewis lung carcinoma cell line; test: Antimetastatic activity against LLC cells allografted in C57BL6 mouse assessed as number of metastatic nodules in lung at 60 mg/kg, ig after 30 days by H and E staining based analysis; assay type: functional
[8] = tested on: Lewis lung carcinoma cell line; test: Antimetastatic activity against LLC cells allografted in C57BL6 mouse assessed as inhibition of metastatic nodules in lung at 60 mg/kg, ig after 30 days by H and E staining based analysis relative to control; assay type: functional; settings: po, 720 h

Chain of Indoleamine 2,3-dioxygenase 1 (P14902 whole entry): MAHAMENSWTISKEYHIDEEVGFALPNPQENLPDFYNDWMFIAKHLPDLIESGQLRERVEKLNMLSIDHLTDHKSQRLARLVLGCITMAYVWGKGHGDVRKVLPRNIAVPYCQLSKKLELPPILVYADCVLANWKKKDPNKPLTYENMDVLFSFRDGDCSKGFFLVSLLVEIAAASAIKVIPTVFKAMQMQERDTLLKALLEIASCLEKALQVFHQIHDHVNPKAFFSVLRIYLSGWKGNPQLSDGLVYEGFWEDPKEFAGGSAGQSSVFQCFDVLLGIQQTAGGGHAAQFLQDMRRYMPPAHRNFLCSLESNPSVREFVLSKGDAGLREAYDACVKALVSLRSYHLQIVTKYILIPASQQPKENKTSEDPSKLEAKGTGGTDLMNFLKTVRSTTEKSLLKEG
Chain of Tryptophan 2,3-dioxygenase (P48775 whole entry): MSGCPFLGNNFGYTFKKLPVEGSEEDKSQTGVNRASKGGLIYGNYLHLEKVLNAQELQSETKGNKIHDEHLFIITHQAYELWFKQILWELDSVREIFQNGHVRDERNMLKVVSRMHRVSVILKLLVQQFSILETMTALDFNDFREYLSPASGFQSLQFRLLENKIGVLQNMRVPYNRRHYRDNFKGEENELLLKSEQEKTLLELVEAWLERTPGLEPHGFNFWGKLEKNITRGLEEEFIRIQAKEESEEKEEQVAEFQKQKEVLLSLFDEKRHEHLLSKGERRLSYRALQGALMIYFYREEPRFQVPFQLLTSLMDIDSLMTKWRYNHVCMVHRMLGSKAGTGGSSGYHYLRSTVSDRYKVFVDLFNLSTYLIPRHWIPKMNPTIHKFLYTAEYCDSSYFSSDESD

Compound `CCOP(=O)(Cc1cccc2ccccc12)NCCNc1nonc1/C(=N/O)Nc1ccc(F)c(Br)c1` (stereo not given) has an IC50 [1] of 126 nM.
`CCOP(=O)(NCCNc1nonc1/C(=N/O)Nc1ccc(F)c(Br)c1)c1ccccc1` (stereo not given) gave an IC50 [1] of 132 nM.
`CCOP(=O)(Cc1ccccc1)NCCNc1nonc1/C(=N/O)Nc1ccc(F)c(Br)c1` (stereo not given) gave an IC50 [1] of 119 nM.
In the case of `NS(=O)(=O)NCCNc1nonc1C(=NO)Nc1ccc(F)c(Br)c1` [EPACADOSTAT], the IC50 [2] is reported as 710 nM, the IC50 [3] is reported as > 10000 nM and the Papp A→B at 1.5 h [4] is reported as 3.1 ×10⁻⁶ cm/s. The solubility at 30 h [5] was 130 µg/mL (≈ 297 µM), the Activity [6] was “Toxic” and the Activity [7] was 21. It also gave an inhibition in vivo at 60 mg/kg [8] of 77%.
